Measurements as given in ChEMBL document CHEMBL2375353, “Efficient induction of apoptosis in HeLa cells by a novel cationic porphycene photosensitizer” (Eur J Med Chem, 2013).
Active and inactive are the calls of the source. The calls are words filed in the database; no cut-off is given here.

Columns and labels:
HeLa [1] = assay: Induction of apoptosis in human HeLa cells at 0.5 uM incubated for 18 hrs prior to red light irradiation measured after 24 hrs; type: functional
HeLa [2] = assay: Induction of apoptosis in human HeLa cells assessed as relocalization of proapoptotic Bax protein within mitochondria at 0.5 uM incubated for 18 hrs prior to red light irradiation measured after 3 to 24 hrs by indirect immunofluorescence; type: functional, cell-based
HeLa [3] = assay: Induction of ROS generation in human HeLa cells assessed as cell survival at 0.5 uM incubated for 18 hrs prior to red light irradiation measured after 24 hrs by MTT assay; type: functional; settings: light or radiation study, read-out: Activity
HeLa [4] = assay: Induction of apoptosis in human HeLa cells assessed as reduction in vinculin expression at 0.5 uM incubated for 18 hrs followed by red light irradiation measured after 6 hrs by immunostaining assay; type: functional, cell-based
HeLa [5] = assay: Phototoxicity against human HeLa cells at 0.75 uM incubated for 18 hrs prior to red light irradiation measured after 3 to 24 hrs by trypan blue exclusion assay; type: functional, cell-based
HeLa [6] = assay: Induction of ROS generation in human HeLa cells assessed as singlet oxygen luminescence signal at 5 uM after 18 hrs in presence of sodium azide; type: functional, cell-based
HeLa [7] = assay: Induction of apoptosis in human HeLa cells at 0.5 uM incubated for 18 hrs followed by red light irradiation by Hoechst-33258 staining; type: functional
HeLa [8] = assay: Darktoxicity against human HeLa cells at 1 uM after 18 hrs by MTT assay; type: cell-based
HeLa [9] = assay: Induction of apoptosis in human HeLa cells assessed as reduction in F-actin expression at 0.75 to 0.5 uM incubated for 18 hrs by immunostaining assay; type: cell-based
HeLa [10] = assay: Induction of apoptosis in human HeLa cells assessed as reduction in F-actin expression at 0.5 uM incubated for 18 hrs followed by red light irradiation measured after 3 hrs by immunostaining assay; type: functional, cell-based
HeLa [11] = assay: Induction of apoptosis in human HeLa cells assessed as volume reduction at 0.5 uM incubated for 18 hrs prior to red light irradiation measured after 3 hrs by neutral red staining; type: functional, cell-based
HeLa [12] = assay: Induction of necrosis in human HeLa cells assessed as breaking of giant bubble at 0.75 uM incubated for 18 hrs prior to red light irradiation measured after 6 hrs by phase contrast microscopy; type: functional, cell-based
HeLa [13] = assay: Induction of ROS generation in human HeLa cells assessed as cell survival at 0.5 uM incubated for 18 hrs followed by NaN3 addition 2 hrs prior to red light irradiation measured after 24 hrs by MTT assay; type: functional; settings: light or radiation study, read-out: Activity
HeLa [14] = assay: Phototoxicity against human HeLa cells at 1 uM incubated for 18 hrs prior to 2.4 J/cm'2 red light irradiation by MTT assay; type: functional
HeLa [15] = assay: Induction of apoptosis in human HeLa cells incubated for 18 hrs prior to red light irradiation measured after 3 hrs by trypan blue exclusion assay; type: functional, cell-based
HeLa [16] = assay: Ratio of drug uptake in human HeLa cells at 0.5 uM after 18 hrs to drug uptake in human HeLa cells at 0.5 uM after 1 hr; type: ADME, cell-based
HeLa [17] = assay: Drug uptake in human HeLa cells at 0.75 uM after 18 hrs by fluorescence microscopy; type: ADME, cell-based
[18] = Darktoxicity against human HeLa cells assessed as cell survival at > 0.5 microM after 18 hrs by MTT assay; type: cell-based; settings: read-out: Activity
HeLa [19] = assay: Drug uptake in human HeLa cells at 0.5 uM by flow cytometry; type: ADME, cell-based; settings: TDE = time-dependent effect
HeLa [20] = assay: Phototoxicity against human HeLa cells at 0.75 uM incubated for 18 hrs prior to 3.6 J/cm'2 red light irradiation by MTT assay; type: functional, cell-based
[21] = Cytotoxicity against human HeLa cells assessed as cell viability after 18 hrs by MTT assay in presence of 10 % FCS; type: cell-based; settings: read-out: Activity
HeLa [22] = assay: Drug uptake in human HeLa cells at 0.5 uM after 18 hrs by flow cytometry; type: ADME, cell-based
HeLa [23] = assay: Induction of apoptosis in human HeLa cells at 0.5 uM incubated for 18 hrs prior to red light irradiation measured after 6 to 24 hrs by neutral red staining; type: functional, cell-based
HeLa [24] = assay: Induction of apoptosis in human HeLa cells at 0.5 uM incubated for 18 hrs prior to red light irradiation measured after 6 hrs by TUNEL assay; type: functional, cell-based
HeLa [25] = assay: Induction of apoptosis in human HeLa cells assessed as trypsin-mediated cell detachment incubated for 18 hrs prior to red light irradiation measured after 24 hrs by hemocytometer; type: functional, cell-based
HeLa [26] = assay: Induction of apoptosis in human HeLa cells assessed as reduction in vinculin expression at 0.75 to 0.5 uM incubated for 18 hrs by immunostaining assay; type: cell-based
HeLa [27] = assay: Induction of apoptosis in human HeLa cells at 0.75 to 0.5 uM after 18 hrs by neutral red staining; type: cell-based
HeLa [28] = assay: Induction of apoptosis in human HeLa cells assessed as chromatin condensation at 0.5 uM incubated for 18 hrs prior to red light irradiation measured after 3 hrs by Hoechst-33258 staining; type: functional, cell-based
HeLa [29] = assay: Induction of apoptosis in human HeLa cells assessed as membrane bubble at 0.5 uM incubated for 18 hrs followed by red light irradiation measured after 6 hrs by immunostaining assay; type: functional, cell-based
HeLa [30] = assay: Induction of necrosis in human HeLa cells assessed as disorganization of F-actin at 0.75 uM incubated for 18 hrs followed by red light irradiation measured after 24 hrs by immunostaining; type: functional, cell-based
HeLa [31] = assay: Induction of necrosis in human HeLa cells assessed as chromatin condensation at 0.75 uM incubated for 18 hrs prior to red light irradiation measured after 1 hr by Hoechst-33258 staining; type: functional, cell-based
HeLa [32] = assay: Induction of apoptosis in human HeLa cells assessed as nuclear fragmentation at 0.5 uM incubated for 18 hrs prior to red light irradiation measured after 3 hrs by Hoechst-33258 staining; type: functional, cell-based

Ratio (HeLa [16]): 3
Drug uptake (HeLa [17]): Active
Drug uptake (HeLa [19]): tde
Drug uptake (HeLa [22]): Active
Structure (SMILES): COCc1ccc(C2=Cc3nc2ccc2[nH]c(cc2-c2ccc(C[n+]4ccccc4)cc2)c2nc(ccc4[nH]c3cc4-c3ccc(C[n+]4ccccc4)cc3)C(c3ccc(C[n+]4ccccc4)cc3)=C2)cc1.[Br-].[Br-].[Br-]
Activity (HeLa [1]): 70%
Activity (HeLa [2]): Active
viability at 0.5 µM (HeLa [3]): 5.2%
Activity (HeLa [4]): Active
Activity (HeLa [5]): Active
Activity (HeLa [6]): inactive
Activity (HeLa [7]): 70%
Activity (HeLa [8]): Toxic
Activity (HeLa [9]): Non-toxic
Activity (HeLa [10]): Active
Activity (HeLa [11]): Active
Activity (HeLa [12]): Active
viability at 0.5 µM (HeLa [13]): 72%
Activity (HeLa [14]): >50%
Activity (HeLa [15]): Active
viability at 18 h [18]: > 90%
Activity (HeLa [20]): Active
viability at 18 h [21]: 100%
Activity (HeLa [23]): Active
Activity (HeLa [24]): Active
Activity (HeLa [25]): Dose-dependent effect
Activity (HeLa [26]): Non-toxic
Activity (HeLa [27]): Non-toxic
Activity (HeLa [28]): Active
Activity (HeLa [29]): Active
Activity (HeLa [30]): Active
Activity (HeLa [31]): Active
Activity (HeLa [32]): Active
